Target: T1, interaction between VCAM-1 and VLA-4 (Homo sapiens, UniProt P05556+P13612)
T1 construct: supplied in their natural form as surface molecules on human U937 cells; host or cells: human U937 cells (VLA-4, endogenous); the partner hVCAM-1(1-3)-IgG was made in house in transfected COS cells (ATCC CRL1651) and used as culture supernatant
Assay: U937/VCAM-1 cell adhesion test (adhesion of U937 cells to hVCAM-1(1-3)-IgG)
Type: cell-based
Details: inhibition of adhesion of human U937 cells (ATCC CRL 1593) to hVCAM-1(1-3)-IgG
Text: A) U937/VCAM-1 Cell Adhesion Test
The test method used for the activity of the compounds of the formula I on the interaction between VCAM-1 and VLA-4 is the assay described below, which is specific for this interaction. The cellular binding components, that is the VLA-4 integrins, are supplied in their natural form as surface molecules on human U937 cells (ATCC CRL 1593), which belong to the leukocytes group. The specific binding components used are genetically engineered recombinant soluble fusion proteins, consisting of the extracytoplasmic domain of human VCAM-1 and the constant region of a human immunoglobulin of the subclass IgG1.
Assay for the Measurement of the Adhesion of U937 Cells (ATCC CRL 1593) to hVCAM-1 (1-3)-IgG
1. Preparation of Human VCAM-1(1-3)-IgG and Human CD4-IgG
A genetic construct for the expression of the extracellular domain of human VCAM-1, combined with the genetic sequence of the heavy chain of human immunoglobulin IgG1 (hinge, CH2 and CH3 regions) (from Brian Seed, Massachusetts General Hospital, Boston, USA; cf. Damle and Aruffo, Proc. Natl. Acad. Sci. USA 1991, 88, 6403), was employed. The soluble fusion protein hVCAM-1(1-3)-IgG contained the three aminoterminal extracellular immunoglobulin-like domains of human VCAM-1 (Damle and Aruffo, Proc. Natl. Acad. Sci. USA 1991, 88, 6403). CD4-IgG (Zettlmeissl et al., DNA and Cell Biology 1990, 9, 347) served as a fusion protein for negative controls. The recombinant proteins were expressed as soluble proteins after DEAE/dextran-mediated DNA transfection in COS cells (ATCC CRL1651) according to standard procedures (Ausubel et al., Current protocols in molecular biology, John Wiley & Sons, Inc., 1994).
2. Assay for the Measurement of the Adhesion of U937 Cells to hVCAM-1(1-3)-IgG
2.1 96-well microtiter test plates (Nunc Maxisorb) were incubated at room temperature for 1 hour with 100 μl/well of a goat-anti-human IgG antibody solution (10 μg/ml in 50 mM tris, pH 9.5). After removal of the antibody solution, washing was carried out once with PBS.
2.2 150 μl/well of a blocking buffer (1% BSA in PBS) were incubated on the plates at room temperature for 0.5 hour. After removal of the blocking buffer, washing was carried out once with PBS.
2.3 100 μl per well of a cell culture supernatant of transfected COS cells were incubated on the plates at room temperature for 1.5 hours. The COS cells were transfected with a plasmid which codes for the three N-terminal immunoglobulin-like domains of VCAM-1, coupled to the Fc portion of human IgG1 (hVCAM-1 (1-3)-IgG). The content of hVCAM-1(1-3)-IgG was about 0.5-1 μg/ml. After removing the culture supernatant, washing was carried out once with PBS.
2.4 The plates were incubated at room temperature for 20 minutes with 100 μl/well of Fc receptor blocking buffer (1 mg/ml of γ-globulin, 100 mM NaCl, 100 μM MgCl2, 100 μM MnCl2, 100 μM CaCl2, 1 mg/ml of BSA in 50 mM HEPES, pH 7.5). After removal of the Fc receptor blocking buffer, washing was carried out once with PBS.
2.5 20 μl of binding buffer (100 μM NaCl, 100 μM MgCl2, 100 μM MnCl2, 100 μM CaCl2, 1 mg/ml of BSA in 50 mM HEPES, pH 7.5) were initially introduced, and the substances to be tested were added in 10 μl of binding buffer and incubated for 20 minutes. The controls used were antibodies against VCAM-1(BBT, No. BBA6) and against VLA-4(Immunotech, No. 0764).
2.6 U937 cells were incubated in Fc receptor blocking buffer for 20 minutes and then pipetted in at a concentration of 1×10^6/ml and in an amount of 100 μl per well ([…]).
2.7 The plates were slowly immersed at an angle of 45° in stop buffer (100 mM NaCl, 100 μM MgCl2, 100 μM MnCl2, 100 μM CaCl2 in 25 mM Tris, pH 7.5) and shaken off. The process was repeated.
2.8 50 μl/well of a dye solution ([…] of Hoechst Dye 33258, 4% formaldehyde, 0.5% Triton X-100 in PBS) were then incubated on the plates for 15 minutes. […]

T1 sequence (P13612 34-1032): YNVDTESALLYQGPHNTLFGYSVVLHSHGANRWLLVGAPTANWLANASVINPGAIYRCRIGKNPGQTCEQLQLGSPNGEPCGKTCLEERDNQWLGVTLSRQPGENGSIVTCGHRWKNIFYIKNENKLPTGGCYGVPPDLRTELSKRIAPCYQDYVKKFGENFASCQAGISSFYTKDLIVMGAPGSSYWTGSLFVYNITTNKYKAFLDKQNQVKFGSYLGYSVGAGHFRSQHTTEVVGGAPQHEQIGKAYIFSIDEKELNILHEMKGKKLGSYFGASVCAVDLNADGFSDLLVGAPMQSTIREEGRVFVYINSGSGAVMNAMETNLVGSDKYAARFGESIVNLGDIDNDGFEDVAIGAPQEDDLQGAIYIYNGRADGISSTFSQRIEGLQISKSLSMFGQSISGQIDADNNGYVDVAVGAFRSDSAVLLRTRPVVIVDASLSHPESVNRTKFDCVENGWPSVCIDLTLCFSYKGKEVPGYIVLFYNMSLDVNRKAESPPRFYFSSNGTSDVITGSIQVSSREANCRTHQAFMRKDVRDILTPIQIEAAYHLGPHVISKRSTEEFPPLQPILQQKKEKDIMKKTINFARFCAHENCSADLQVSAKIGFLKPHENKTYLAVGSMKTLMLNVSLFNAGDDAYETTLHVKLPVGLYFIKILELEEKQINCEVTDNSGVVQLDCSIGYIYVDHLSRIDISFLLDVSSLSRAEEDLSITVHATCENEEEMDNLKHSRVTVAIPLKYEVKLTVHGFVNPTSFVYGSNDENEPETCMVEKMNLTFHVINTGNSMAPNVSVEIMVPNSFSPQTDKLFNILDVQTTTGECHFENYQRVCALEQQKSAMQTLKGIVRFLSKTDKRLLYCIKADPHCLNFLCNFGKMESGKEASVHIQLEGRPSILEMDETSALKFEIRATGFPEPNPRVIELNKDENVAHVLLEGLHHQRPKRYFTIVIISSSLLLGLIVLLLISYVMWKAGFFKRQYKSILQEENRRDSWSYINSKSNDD
T1 sequence (P05556 21-798): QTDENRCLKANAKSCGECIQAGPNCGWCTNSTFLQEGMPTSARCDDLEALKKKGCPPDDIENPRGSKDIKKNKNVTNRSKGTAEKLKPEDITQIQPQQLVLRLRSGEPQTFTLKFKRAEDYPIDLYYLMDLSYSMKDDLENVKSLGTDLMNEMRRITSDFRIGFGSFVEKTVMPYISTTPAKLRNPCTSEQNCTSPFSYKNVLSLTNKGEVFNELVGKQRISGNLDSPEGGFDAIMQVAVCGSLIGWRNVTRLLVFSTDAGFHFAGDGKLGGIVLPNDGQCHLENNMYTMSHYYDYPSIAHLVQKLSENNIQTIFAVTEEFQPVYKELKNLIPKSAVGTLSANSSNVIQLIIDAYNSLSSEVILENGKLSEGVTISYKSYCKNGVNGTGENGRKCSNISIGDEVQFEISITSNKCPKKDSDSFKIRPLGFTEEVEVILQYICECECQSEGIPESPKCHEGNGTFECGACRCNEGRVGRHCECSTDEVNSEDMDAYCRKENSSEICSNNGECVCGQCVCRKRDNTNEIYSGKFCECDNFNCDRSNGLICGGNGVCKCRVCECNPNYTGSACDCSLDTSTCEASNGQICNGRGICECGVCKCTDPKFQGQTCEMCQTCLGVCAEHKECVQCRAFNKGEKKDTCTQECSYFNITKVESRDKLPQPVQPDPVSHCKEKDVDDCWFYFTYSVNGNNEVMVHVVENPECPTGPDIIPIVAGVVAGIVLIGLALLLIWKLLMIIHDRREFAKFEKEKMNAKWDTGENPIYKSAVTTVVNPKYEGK

COc1cccc([C@H](CC(=O)O)NC(=O)[C@H](CC(C)C)N2C(=O)N(Cc3ccc(NC(=O)Nc4ccccc4C)cc3)C3(CCCCC3)C2=O)c1 [Example 25, (S)-3-((S)-2-(4,4-Pentamethylene-3-(4-(3-(2-methylphenyl)ureido)benzyl)-2,5-dioxoimidazolidin-1-yl)-2-(2-methylpropyl)acetylamino)-3-(3-methoxyphenyl)propionic acid]
IC50: 1.1 nM

From US6399643B1, “Spiroimidazolidine derivatives, their preparation, their use and pharmaceutical preparations formed therefrom” (Aventis Pharma Deutschland GmbH, priority 1999, dated 2002)
